# Values quoted from earlier work as cited in article PMC5599218 (Biomaterials, 2017).
# Values joined by “and” are separate entries in the source; they are usually repeats but may differ in a detail not shown here. Equal entries are not always repeated.
# Columns and labels:
# [1] = women using DPV vaginal rings for 7d; ref [54]
# [2] = DPV vaginal films, after 6h exposure, estimated; ref [59]
# HIV-1 = settings: ref [52]
# [3] = oral daily dosing, 12h after the last dose; ref [52]
Structure (SMILES),Mean vaginal fluid concentrations of DPV [1] [µg/mL],DPV provided to human cervical explant tissues [2],in vitro IC50 (HIV-1),ETR concentration in cervicovaginal fluid (CVF) [3] [µg/mL]
"Cc1cc(C)c(Nc2ccnc(Nc3ccc(C#N)cc3)n2)c(C)c1 [DPV, Dapivirine]",0.7 to 7.1,152–334 nM and 0.05–0.11 μg/mL,,
"Cc1cc(C#N)cc(C)c1Oc1nc(Nc2ccc(C#N)cc2)nc(N)c1Br [ETR, etravirine]",,,~ 2 ng/mL,0.857
